Test results from patent US20030236294A1, “Compounds and methods for inducing apoptosis in proliferating cells” (priority 2002, published 2003).

Experiments:
PC-3 cells = test: Apoptosis induction in PC-3 cells (T1/2, time for 50% apoptotic death; cell viability / Cell Death Detection ELISA); conditions: for T½ (h) 50 μM: time required for eliciting 50% apoptotic death; for change in potency in apoptosis induction on replacement of —SO2NH2 with —CONH2: carboxamide versus sulfonamide counterpart, FIG. 10A; for classification as fast-acting or slow-acting apoptosis inducer: prostate cancer cells, FIG. 8
Protocol: Induction of apoptosis was also assessed by using a “Cell Death Detection ELISA” assay (Boehringer-Mannheim) following the manufacturer's instructions. This test is based on the quantitative determination of cytoplasmic histone-associated DNA fragments in the form of mono- and oligonucleosomes after induced apoptotic death. […] Both floating and adherent cells were collected, and cell lysates equivalent to 10^4 cells were used for the ELISA analysis.
Induction of apoptosis was also assessed by using a “Cell Death Detection ELISA” assay (Boehringer-Mannheim) by following the manufacturer's instructions. This test is based on the quantitative determination of cytoplasmic histone-associated DNA fragments in the form of mono- and oligonucleosomes after induced apoptotic death. […] Both floating and adherent cells were collected, and cell lysates equivalent to 10^4 cells were used in the ELISA.
Both adherent and floating cells were combined for the assessment of cell viability. Cell viability was determined by trypan blue exclusion.

PGE2 production = test: Prostaglandin E2 (PGE2) immunoassay; assay type: cell-based, human; conditions: 50 μM; 1F2, 3D9, 7D9 cells and parental PC-3 cells; data not shown
Protocol: Culture medium was changed, and 24 hours later conditioned medium was collected to assay PGE2. Conditioned medium was centrifuged to remove particulate material, and then cells were collected by scraping to determine the protein concentration. PGE2 was assayed in 100 μL medium in triplicate according to the manufacturer's instruction (R&D Systems, Inc.; Minneapolis, Minn.). PGE2 data were normalized to protein content.

[1] = system: Akt and ERK2 phosphorylation in PC-3 cells; test: Western blot of Akt and ERK2 phosphorylation status; assay type: cell-based, human
Protocol: Immunoblotting For western blot analysis, cells were washed in phosphate-buffered saline (PBS), resuspended in sodium dodecyl sulfate (SDS) gel-loading buffer consisting of 50 mM Tris-HCl, pH 6.8, 100 mM dithiothreitol, 2% SDS, 0.1% bromophenol blue, and 10% glycerol, sonicated with an ultrasonic sonicator for 5 seconds (Virsonic 300, 4.5 output), and boiled for 5 minutes. After a brief centrifugation, equivalent protein amounts (60-100 μg) from the soluble fractions were resolved in 10% SDS-polyacrylamide gels on a Minigel apparatus and transferred to a nitrocellulose membrane in a semidry transfer cell. The transblotted membrane was washed twice with Tris-buffered saline (TBS) containing 0.05% Tween 20 (TBST). After blocking with TBS containing 5% nonfat milk for 60 minutes, the membrane was incubated with the appropriate primary antibody (anti-COX-2, anti-Akt, anti-P-^473Ser Akt, anti-ERK, and anti-phospho-ERK antibodies diluted 1:1,000; anti-actin monoclonal antibody, diluted 1:5,000) in TBS-1% nonfat milk at 4° C. for 12 hours and washed twice with TBST. The membranes were probed with goat anti-rabbit IgG-horseradish peroxidase conjugates (diluted 1:5,000) for 1 hour at room temperature and washed twice with TBST. Bands were visualized by enhanced chemiluminescence.
Immunoblotting. […]

LNCaP cells = test: Apoptosis induction in LNCaP cells; assay type: cell-based, human; conditions: LNCaP (p53+/+), compared with PC-3; data not shown
DU-145 cells = test: Apoptosis induction in DU-145 cells; assay type: cell-based, human; conditions: DU-145 (p53−/−), compared with PC-3; data not shown
COX-2 = molecular target: T1, COX-2 (Homo sapiens, UniProt P35354); conditions: Table 1; read-out: IC50 (μM), COX-2 inhibition; cited from earlier work
T1 sequence (P35354 18-604): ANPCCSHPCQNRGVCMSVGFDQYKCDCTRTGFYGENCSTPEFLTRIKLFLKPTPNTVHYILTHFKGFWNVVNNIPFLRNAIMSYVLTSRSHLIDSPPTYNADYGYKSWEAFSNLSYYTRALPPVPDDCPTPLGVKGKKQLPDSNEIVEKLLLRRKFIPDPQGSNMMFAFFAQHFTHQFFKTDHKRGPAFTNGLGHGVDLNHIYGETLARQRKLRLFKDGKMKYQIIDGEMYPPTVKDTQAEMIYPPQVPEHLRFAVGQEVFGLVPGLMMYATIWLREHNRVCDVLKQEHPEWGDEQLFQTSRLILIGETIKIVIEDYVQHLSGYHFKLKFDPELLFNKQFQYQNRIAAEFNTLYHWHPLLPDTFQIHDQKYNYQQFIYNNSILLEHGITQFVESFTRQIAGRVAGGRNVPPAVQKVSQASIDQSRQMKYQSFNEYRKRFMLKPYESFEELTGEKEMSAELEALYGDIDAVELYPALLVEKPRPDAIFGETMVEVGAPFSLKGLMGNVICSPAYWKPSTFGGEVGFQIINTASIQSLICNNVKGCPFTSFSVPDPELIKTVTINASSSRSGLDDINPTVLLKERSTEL

In the case of `Cc1ccc(F)cc1F` [Compound 4b], the “T½ (h) 50 μM” value (PC-3 cells; 50 μM, Table 2) is reported as over 100 h.

In the case of “4-[5-(2,4-Dimethylphenyl)-3-(trifluoromethyl)-1H-pyrazol-1-yl]benzene-carboxyamide [Compound 37b]”, the “change in potency in apoptosis induction on replacement of —SO2NH2 with —CONH2” value (shortened to “change in potency in apoptosis induction”) (PC-3 cells) is reported as “no appreciable change”.

In the case of `NS(=O)(=O)c1ccc(C2=C(c3ccc(Cl)c(Cl)c3)COC2=O)cc1` [Compound 49b, 3-(4-sulfamoylphenyl)-4-(3′,4′-dichlorophenyl)-2(5H)-furanone], the “T1/2 at 50 μM” value (PC-3 cells; 50 μM, PC-3 cells) is reported as 15 h.

In the case of `CS(=O)(=O)Nc1ccc([N+](=O)[O-])cc1OC1CCCCC1` [NS398, reference compound], the PGE2 production (PGE2 production) is reported as “reduced to the same extent” and the “classification as fast-acting or slow-acting apoptosis inducer” value (PC-3 cells) is reported as “slow-acting apoptosis inducer”.

For `COc1ccc(OC)c(C)c1` [Compound 23b], the “T½ (h) 50 μM” value (PC-3 cells; 50 μM, Table 2) was over 100 h.

With `Cc1ccc(C#N)cc1` [Compound 16b] the “T½ (h) 50 μM” value (PC-3 cells; 50 μM, Table 2) was over 100 h.

In the case of `Cc1ccc(C)c(C)c1` [Compound 21b], the “T½ (h) 50 μM” value (PC-3 cells; 50 μM, Table 2) is reported as 2 h.

For “4-[5-(2,5-Dichlorophenyl)-3-(trifluoromethyl)-1H-pyrazol-1-yl]benzene-carboxyamide [Compound 32b]”, the “change in potency in apoptosis induction” value (PC-3 cells) was “no appreciable change”.

In the case of `CS(=O)(=O)c1ccc(C2=C(c3ccccc3)COC2=O)cc1` [Compound 47b, 3-(4′-methylsulfonylphenyl)-4-phenyl-2(5H)-furanone], the “activity in eliciting apoptosis in PC-3 cells (in words)” value (PC-3 cells; PC-3 cells) is reported as “poor activity”.

For `COc1ccc(C)c(OC)c1` [Compound 22b], the “T½ (h) 50 μM” value (PC-3 cells; 50 μM, Table 2) was over 100 h.

With `Cc1cccs1` [Compound 27b] the “T½ (h) 50 μM” value (PC-3 cells; 50 μM, Table 2) was over 100 h.

In the case of `Cc1cc(Cl)sc1Cl` [Compound 29b], the “T½ (h) 50 μM” value (PC-3 cells; 50 μM, Table 2) is reported as over 100 h.

For `Cc1ccc(-c2ccnn2-c2ccc(S(N)(=O)=O)cc2)cc1` [Compound 40b], the “activity in eliciting apoptosis in PC-3 cells (in words)” value (PC-3 cells; PC-3 cells) was “loss of high potency”.

With `CS(=O)(=O)c1ccc(C2=C(c3ccccc3)C(=O)OC2)cc1` [rofecoxib, reference compound] the PGE2 production (PGE2 production) was “reduced to the same extent” and the “classification as fast-acting or slow-acting apoptosis inducer” value (PC-3 cells) was “slow-acting apoptosis inducer”.

With `NS(=O)(=O)c1ccc(-n2nc(C(F)(F)F)cc2-c2ccc(Cl)cc2)cc1` [1a, 4-[5-(4-Chlorophenyl)-3-(trifluoromethyl)-1H-pyrazol-1-yl]benzenesulfonamide] the “phosphorylation status of Akt and ERK2” value ([1]; PC-3 cells) was “concurrent dephosphorylation of Akt and ERK2”, the “susceptibility to apoptosis induction” value (LNCaP cells) was “susceptibility identical to that of PC-3 cells” and the “susceptibility to apoptosis induction” value (DU-145 cells) was “susceptibility identical to that of PC-3 cells”.

In the case of `Cc1ccc(-c2cc(C(F)(F)F)nn2-c2ccc(S(N)(=O)=O)cc2)cc1` [celecoxib, 4-[5-(4-methylphenyl)-3-(trifluoromethyl)-1H-pyrazol-1-yl]benzenesulfonamide, reference compound], the “time to 50% decrease in cell viability” value (PC-3 cells; 50 μM, PC-3 cells) is reported as 2 h, the “T½ (h) 50 μM” value (PC-3 cells; 50 μM, Table 2) is reported as 2 h and the “phosphorylation of Akt and ERK2” value ([1]; all four antisense COX-2 clones) is reported as “decreased phosphorylation of Akt and ERK2”. The “susceptibility to apoptosis induction” value (LNCaP cells) was “susceptibility identical to that of PC-3 cells” and the “susceptibility to apoptosis induction” value (DU-145 cells) was “susceptibility identical to that of PC-3 cells”.

With `NS(=O)(=O)c1ccc(-n2nc(C(F)(F)F)cc2-c2cc(Cl)ccc2Cl)cc1` [Example 5] the “T½ (h) 50 μM” value (PC-3 cells; 50 μM, Table 1) was 3 h.

In the case of `NS(=O)(=O)c1ccc(-n2nc(C(F)(F)F)cc2-c2ccccc2Cl)cc1` [Example 13], the “T½ (h) 50 μM” value (PC-3 cells; 50 μM, Table 1) is reported as 4 h.

For “4-[5-(3,4-Dichlorophenyl)-3-(trifluoromethyl)-1H-pyrazol-1-yl]benzene-carboxyamide [Compound 33b]”, the “change in potency in apoptosis induction” value (PC-3 cells) was “no appreciable change”.

In the case of `NS(=O)(=O)c1ccc(-n2nc(C(F)(F)F)cc2-c2ccc(Cl)cc2Cl)cc1` [Example 12], the “T½ (h) 50 μM” value (PC-3 cells; 50 μM, Table 1) is reported as 2 h.

In the case of `Cc1ccco1` [Compound 26b], the “T½ (h) 50 μM” value (PC-3 cells; 50 μM, Table 2) is reported as over 100 h.

For `Cc1ccc(C)c(-c2cc(C(F)(F)F)nn2-c2ccc(S(N)(=O)=O)cc2)c1` [Example 7], the IC50 (COX-2) is given as over 100 µM and the “T½ (h) 50 μM” value (PC-3 cells; 50 μM, Table 1) is given as 1 h.

In the case of `Fc1ccc(F)cc1` [Compound 5b], the “T½ (h) 50 μM” value (PC-3 cells; 50 μM, Table 2) is reported as over 100 h.

For `Cc1ccc(-c2cc(C(F)(F)F)nn2-c2ccc(S(N)(=O)=O)cc2)c(C)c1` [Example 9], the “T½ (h) 50 μM” value (PC-3 cells; 50 μM, Table 1) was 2 h.

In the case of “4-[5-(2,4-Dichlorophenyl)-3-(trifluoromethyl)-1H-pyrazol-1-yl]benzene-carboxyamide [Compound 31b]”, the “change in potency in apoptosis induction” value (PC-3 cells) is reported as “no appreciable change”.

With `Cc1ccc(C)c(-c2cc(C(F)(F)F)nn2-c2ccc(S(N)(=O)=O)cc2)c1` [compound 7a, 4-[5-(2,5-dimethylphenyl)-3-(trifluoromethyl)-1H-pyrazol-1-yl]benzenesulfonamide] the “time to 50% decrease in cell viability” value (PC-3 cells; 50 μM, PC-3 cells) was “within an hour”.
